Source: PubChem BioAssay (NCI)
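Each compound was tested at five concentrations against cells in 96-well plates for 48 hours. The concentration for full growth arrest is given as TGI.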

What was measured:
Assay in all cases: DTP human tumour cell line panel, 48 h
SW-620 colon = test system: SW-620 colon
OVCAR-8 ovarian = test system: OVCAR-8 ovarian
SK-MEL-2 melanoma = test system: SK-MEL-2 melanoma
MDA-N = test system: MDA-N
MOLT-4 leukemia = test system: MOLT-4 leukemia
MALME-3M melanoma = test system: MALME-3M melanoma
NCI-H460 lung = test system: NCI-H460 lung
HCT-15 colon = test system: HCT-15 colon
MDA-MB-435 = test system: MDA-MB-435
A498 renal = test system: A498 renal
EKVX NSCLC = test system: EKVX NSCLC
SF-295 CNS = test system: SF-295 CNS
U251 CNS = test system: U251 CNS
SNB-19 CNS = test system: SNB-19 CNS
SK-MEL-28 melanoma = test system: SK-MEL-28 melanoma
MCF7 breast = test system: MCF7 breast
ACHN renal = test system: ACHN renal
SR leukemia = test system: SR leukemia
UACC-62 melanoma = test system: UACC-62 melanoma
786-0 renal = test system: 786-0 renal
RXF 393 renal = test system: RXF 393 renal
HCT-116 colon = test system: HCT-116 colon
SF-268 CNS = test system: SF-268 CNS
HS 578T breast = test system: HS 578T breast
OVCAR-3 ovarian = test system: OVCAR-3 ovarian
SF-539 CNS = test system: SF-539 CNS
NCI-H226 lung = test system: NCI-H226 lung
LOX IMVI melanoma = test system: LOX IMVI melanoma
SK-OV-3 ovarian = test system: SK-OV-3 ovarian
MDA-MB-231 breast = test system: MDA-MB-231 breast
NCI/ADR-RES ovarian = test system: NCI/ADR-RES ovarian
HT29 colon = test system: HT29 colon
UO-31 renal = test system: UO-31 renal
IGROV1 ovarian = test system: IGROV1 ovarian
T-47D breast = test system: T-47D breast
A549 NSCLC = test system: A549 NSCLC
SK-MEL-5 melanoma = test system: SK-MEL-5 melanoma
NCI-H23 lung = test system: NCI-H23 lung
UACC-257 melanoma = test system: UACC-257 melanoma
COLO 205 colon = test system: COLO 205 colon
HOP-92 NSCLC = test system: HOP-92 NSCLC
HL-60(TB) leukemia = test system: HL-60(TB) leukemia
NCI-H522 lung = test system: NCI-H522 lung
PC-3 prostate = test system: PC-3 prostate
SN12C renal = test system: SN12C renal
KM12 colon = test system: KM12 colon
K-562 leukemia = test system: K-562 leukemia
DU-145 prostate = test system: DU-145 prostate
OVCAR-5 ovarian = test system: OVCAR-5 ovarian
SNB-75 CNS = test system: SNB-75 CNS
HOP-62 NSCLC = test system: HOP-62 NSCLC
M14 melanoma = test system: M14 melanoma
CAKI-1 renal = test system: CAKI-1 renal
BT-549 breast = test system: BT-549 breast
RPMI-8226 leukemia = test system: RPMI-8226 leukemia
CCRF-CEM leukemia = test system: CCRF-CEM leukemia
HCC-2998 colon = test system: HCC-2998 colon
TK-10 renal = test system: TK-10 renal
OVCAR-4 ovarian = test system: OVCAR-4 ovarian

CN(C)c1ccc(/C=C(\NC(=O)c2ccccc2)C(=O)Nc2ccccc2C(=O)O)cc1
TGI (SW-620 colon): > 100 µM
TGI (OVCAR-8 ovarian): > 100 µM
TGI (SK-MEL-2 melanoma): > 100 µM
TGI (MDA-N): > 100 µM
TGI (MOLT-4 leukemia): > 100 µM
TGI (MALME-3M melanoma): > 100 µM
TGI (NCI-H460 lung): > 100 µM
TGI (HCT-15 colon): > 100 µM
TGI (MDA-MB-435): > 100 µM
TGI (A498 renal): > 100 µM
TGI (EKVX NSCLC): > 100 µM
TGI (SF-295 CNS): > 100 µM
TGI (U251 CNS): > 100 µM
TGI (SNB-19 CNS): > 100 µM
TGI (SK-MEL-28 melanoma): > 100 µM
TGI (MCF7 breast): > 100 µM
TGI (ACHN renal): > 100 µM
TGI (SR leukemia): > 100 µM
TGI (UACC-62 melanoma): > 100 µM
TGI (786-0 renal): > 100 µM
TGI (RXF 393 renal): > 100 µM
TGI (HCT-116 colon): > 100 µM
TGI (SF-268 CNS): > 100 µM
TGI (HS 578T breast): > 100 µM
TGI (OVCAR-3 ovarian): > 100 µM
TGI (SF-539 CNS): > 100 µM
TGI (NCI-H226 lung): > 100 µM
TGI (LOX IMVI melanoma): > 100 µM
TGI (SK-OV-3 ovarian): > 100 µM
TGI (MDA-MB-231 breast): > 100 µM
TGI (NCI/ADR-RES ovarian): > 100 µM
TGI (HT29 colon): > 100 µM
TGI (UO-31 renal): > 100 µM
TGI (IGROV1 ovarian): > 100 µM
TGI (T-47D breast): > 100 µM
TGI (A549 NSCLC): > 100 µM
TGI (SK-MEL-5 melanoma): > 100 µM
TGI (NCI-H23 lung): > 100 µM
TGI (UACC-257 melanoma): > 100 µM
TGI (COLO 205 colon): > 100 µM
TGI (HOP-92 NSCLC): > 100 µM
TGI (HL-60(TB) leukemia): > 100 µM
TGI (NCI-H522 lung): > 100 µM
TGI (PC-3 prostate): > 100 µM
TGI (SN12C renal): > 100 µM
TGI (KM12 colon): > 100 µM
TGI (K-562 leukemia): > 100 µM
TGI (DU-145 prostate): > 100 µM
TGI (OVCAR-5 ovarian): > 100 µM
TGI (SNB-75 CNS): > 100 µM
TGI (HOP-62 NSCLC): > 100 µM
TGI (M14 melanoma): > 100 µM
TGI (CAKI-1 renal): > 100 µM
TGI (BT-549 breast): > 100 µM
TGI (RPMI-8226 leukemia): > 100 µM
TGI (CCRF-CEM leukemia): > 100 µM
TGI (HCC-2998 colon): > 100 µM

CC1OC(OC2C(O)COC(OC3C(C)OC(OC4C(OC(=O)[C@]56CCC(C)(C)C[C@@H]5C5=CCC7[C@@]8(C)C[C@H](O)[C@H](OC9OC(CO)C(O)C(OC%10OC(CO)C(O)C(O)C%10O)C9O)[C@@](C)(CO)[C@@H]8CC[C@@]7(C)[C@]5(C)CC6)OCC(O)C4O)C(O)C3OC3OCC(O)C(O)C3O)C2O)C(O)C(O)C1O (stereo partly specified)
TGI (SW-620 colon): 20.6 µM
TGI (OVCAR-8 ovarian): 29 µM
TGI (SK-MEL-2 melanoma): 11.7 µM
TGI (MDA-N): 7.24 µM
TGI (MOLT-4 leukemia): 36.1 µM
TGI (MALME-3M melanoma): 29.9 µM
TGI (TK-10 renal): 22.7 µM
TGI (NCI-H460 lung): 34.8 µM
TGI (HCT-15 colon): 28.2 µM
TGI (MDA-MB-435): 7.72 µM
TGI (A498 renal): 5 µM
TGI (EKVX NSCLC): 15.6 µM
TGI (SF-295 CNS): 9.81 µM
TGI (U251 CNS): 20.1 µM
TGI (SNB-19 CNS): 20.3 µM
TGI (SK-MEL-28 melanoma): 5.17 µM
TGI (MCF7 breast): 43.5 µM
TGI (ACHN renal): 19.5 µM
TGI (SR leukemia): 27 µM
TGI (UACC-62 melanoma): 12.6 µM
TGI (786-0 renal): 17.7 µM
TGI (RXF 393 renal): 21.6 µM
TGI (HCT-116 colon): 23.7 µM
TGI (SF-268 CNS): 30 µM
TGI (HS 578T breast): 34.8 µM
TGI (OVCAR-3 ovarian): 27.2 µM
TGI (SF-539 CNS): 32.1 µM
TGI (NCI-H226 lung): 25.1 µM
TGI (LOX IMVI melanoma): 29.6 µM
TGI (SK-OV-3 ovarian): 29.4 µM
TGI (MDA-MB-231 breast): 8.87 µM
TGI (OVCAR-4 ovarian): 29.8 µM
TGI (NCI/ADR-RES ovarian): 26.4 µM
TGI (HT29 colon): 33.9 µM
TGI (UO-31 renal): 9.92 µM
TGI (IGROV1 ovarian): 24.5 µM
TGI (T-47D breast): 14 µM
TGI (A549 NSCLC): 4.29 µM
TGI (SK-MEL-5 melanoma): 15 µM
TGI (NCI-H23 lung): 10.4 µM
TGI (UACC-257 melanoma): 16.8 µM
TGI (COLO 205 colon): 3.82 µM
TGI (HOP-92 NSCLC): 31.1 µM
TGI (HL-60(TB) leukemia): 15 µM
TGI (NCI-H522 lung): 26.4 µM
TGI (PC-3 prostate): 16.1 µM
TGI (SN12C renal): 3.87 µM
TGI (KM12 colon): 33.5 µM
TGI (K-562 leukemia): > 52.3 µM
TGI (DU-145 prostate): 19.7 µM
TGI (OVCAR-5 ovarian): 22.8 µM
TGI (SNB-75 CNS): 30.9 µM
TGI (HOP-62 NSCLC): 20.3 µM
TGI (M14 melanoma): 3.58 µM
TGI (CAKI-1 renal): 16.3 µM
TGI (BT-549 breast): 25.8 µM
TGI (RPMI-8226 leukemia): 76.8 µM
TGI (CCRF-CEM leukemia): 25.2 µM
TGI (HCC-2998 colon): 4.44 µM
